Data taken from patent publication US6420570B1, “Psoralen compounds” (priority 1993, dated 2002).
Structures can show the parent of a compound that is named as a salt. Where two headings read alike, the source gives them in different places.

Tests used:
[1] = test system: TA1537; assay: Ames assay, dark mutagenicity, strain TA1537; conditions: TA1537 −S9; 10 μg/plt
Method: (§1) In this example the compounds of the present invention are tested for their dark mutagenicity using an Ames assay. The procedures used for the Salmonella mutagenicity test as described in detail by Maron and Ames were followed exactly. Maron, D. M. and B. N. Ames, Mutation Research 113:173 (1983). A brief description for each procedure is given here. The tester strains TA97a, TA98, TA100, TA102, TA1537 and TA1538 were obtained from Dr. Ames. TA97a, TA98, TA1537 and TA1538 are frameshift tester strains. TA100 and TA102 are base-substitution tester strains. Upon receipt each strain was cultured under a variety of conditions to confirm the genotypes specific to the strains.
(§2) The first tests done with the strains were to determine the range of spontaneous reversion for each of the strains. With each mutagenicity experiment the spontaneous reversion of the tester strains to histidine independence was measured and expressed as the number of spontaneous revertants per plate. This served as the background controls.
(§3) For all experiments, the pre-incubation procedure was used. In this procedure one vial of each tester strain was thawed and 20 μL of this culture was added to 6 mL of Oxoid Nutrient Broth #2. This solution was allowed to shake for 10 hours at 37° C. In the pre-incubation procedure, 0.1 mL of this overnight culture was added to each of the required number of sterile test tubes. To half of the tubes 0.5 mL of a 10% S-9 solution containing Aroclor 1254 induced rat liver extract (Molecular Toxicology Inc., Annapolis, MD), and MgCl2, KCl, glucose-6-phosphate, NADP, and sodium phosphate buffer (Sigma, St. Louis. Mo.) were added. To the other half of the tubes 0.5 mL of 0.2M sodium phospate buffer, pH 7.4, was used in place of the S-9 mixture (the -S9 samples) Finally 0.1 mL of the test solution containing either 0.0.1, 0.5, 1, 5, 10, 50, 100, 250, or 500 μg/mL of the test compound was added. The 0.7 mL mixture pre-incubated while shaking for 20 minutes at 37° C. After shaking, 2 mL of molten top agar supplemented with histidine and biotin were added to the 0.7 mL mixture and immediately poured onto a minimal glucose agar plate (volume of base agar was 20 ml.). The top agar was allowed 30 minutes to solidify and then the plates were inverted and incubated for 44 hours at 37° C. After incubation the number of revertant colonies on each plate were counted. […] (“n” represents the number of replicates performed for each data point.)
(§4) Maron and Ames (1983) describe the conflicting views with regard to the statistical treatment of data generated from the test.

[2] = test system: R17; assay: R17 bacteriophage inactivation screen, varying compound concentration; format: cell-based; conditions: for R17 log kill 16 uM / R17 log kill 32 uM / R17 log kill 64 uM: starting titer approx. 7.1 logs
Method: The assay used to predict pathogen inactivation efficiency and to determine nucleic acid binding of the photoreactive binding compounds of the present invention was that in which a bacteriophage, R17, in solution with the desired substrate was irradiated. The ability of the phage to subsequently infect bacteria and inhibit their growth was measured. The bacteriophage was selected for its relatively accessible nucleic acid such that the culture growth inhibition would accurately reflect nucleic acid damage by the test compounds. The bacteriophage assay for nucleic acid binding to test compounds offers a safe and inexpensive procedure to identify compounds likely to display efficient pathogen inactivation. […] An aliquot (0.5 mL) was transferred to a 1.5 mL, snap-top polyethylene tube. An aliquot (0.004-0.040 mL) of the test compound stock solution prepared in water, ethanol or dimethylsulfoxide at 0.80-8.0 mM was added to the tube. Compounds were tested at concentrations between 4 μM and 320 μM. (AMT is commercially available from HRI, Inc., Concord, Calif.; 8-MOP is commercially available from Sigma, St. Louis, Mo.). The tubes were placed in a light device as described in EXAMPLE 1 and irradiated for between 1 and 10 minutes. […] To make the dilutions, a 0.100 mL aliquot of the irradiated solution of phage and test compound was added to the first dilution tube of 0.4 mL of media then 0.020 mL of this solution was added to the second tube of 0.5 mL medium (1:25). The second solution was then diluted serially (1:25) into the remaining tubes. […] After the top agar hardened, the plates were incubated at 37° C. overnight. The plaque forming units were then counted the following morning and the titer of the phage remaining after phototreatment was calculated based on the dilution factors. The following controls were run: the “phage only” in which phage was not treated with test compound and not irradiated (listed as “starting titer” in the tables below); the “UV only” in which the phage was irradiated in the absence of test compound; and the “dark” control in which the phage/test compound solution was not irradiated before it was diluted and plated.

[3] = test system: cell-free virus (HIV); format: cell-based; conditions: for HIV Log Kill 64 μM / HIV Log Kill 16 μM / HIV Log Kill 32 μM: 1 minute irradiation
Method: Pathogen inactivation efficiency of several compounds of the present invention was evaluated by examining the ability of the compounds to inactivate cell-free virus (HIV). Inactivation of cell-free HIV was performed as follows.
As in the R17 assay, small aliquots of the compounds listed in TABLES 8 and 9, below, at the concentrations listed in the table, were added to stock HIV-1 to a total of 0.5 mL. The stock HIV (10^5-10^7 plaque forming units/mL) was in DMEM/15% FBS. […] Controls included HIV-1 stock only, HIV-1 plus UVA only, and HIV-1 plus the highest concentration of each psoralen tested, with no UVA. Post irradiation, all samples were stores frozen at −70° C. until assayed for infectivity by a microtiter plaque assay. Aliquots for measurement of residual HIV infectivity in the samples treated with a compound of the present invention were withdrawn and cultured.
Residual HIV infectivity was assayed using an MT-2 infectivity assay. […] The assay medium was 85% DMEM (with a high glucose concentration) containing 100 μg of streptomycin, 100 U of penicillin, 50 μg of gentamicin, and 1 μg of amphotericin B per mL, 15% FBS and 2 μg of Polybrene (Sigma Chemical Co., St. Louis, Mo.) per mL. Test and control samples from the inactivation procedure were diluted in 50% assay medium and 50% normal human pooled plasma. The samples were serially diluted directly in 96-well plates (Corning Glass Works, corning, N.Y.). The plates were mixed on an oscillatory shaker for 30 seconds and incubated at 37° C. in a 5% CO2 atmosphere for 1 to 18 hours. […] After an additional 1 hour of incubation at 37° C. in 5% CO2, 0.075 mL of assay medium containing 1.6% SeaPlaque agarose (FMC Bioproducts, Rockland, me.) and prewarmed to 38.5° C. was added to each well. The plates were kept at 37° C. for a few minutes until several plates had accumulated and then centrifuged in plate carriers at 600×g for 20 minutes in a centrifuge precooled to 10° C. In the centrifuge, cell monolayers formed prior to gelling of the agarose layer. The plates were incubated for 5 days at 37° C. in 5% CO2 and stained by the addition of 0.05 mL of 50 μg/mL propidium iodide (Sigma Chemical Co.) in phosphate-buffered saline (pH 7.4) to each well. After 24 to 48 hours, the red fluorescence-stained microplaques were visualized by placing the plates on an 8,000 μW/cm^2 304 nm UV light box (Fotodyne, Inc., New Berlin, Wis.). The plaques were counted at a magnification of ×20 to ×25 through a stereomicroscope. “n” represents the number of runs for which the data point is an average.

[4] = test system: TA100
Method: as §1, §2, §3, §4

[5] = test system: TA1538; assay: Ames assay, dark mutagenicity, strain TA1538; conditions: TA1538; in the presence of S9
Method: as §1, §2, §3, §4

[6] = test system: R17; assay: R17 inactivation at constant concentration, varying doses of UV light; format: cell-based, bacteriophage R17; conditions: UV doses 1.0 to 3.0 J/cm^2, FIGS. 11-17
Method: Compounds of the present invention were also tested at a constant concentration for varying doses of UV light. Three sets of 1.5 mL tubes were prepared containing 0.6 mL aliquots of R17 in DMEM (prepared as described above). The compound tested was added at the desired concentration and the samples were vortexed. The samples were then irradiated at intervals of 1.0 J/cm^2, until 3.0 J/cm^2 was reached. Between each 1.0 J/cm^2 interval, 100 μL was removed from each sample and placed in the first corresponding dilution tube, then five sequential dilutions were performed for each compound tested, at all 3 irradiation doses, as described above in this example.
Then 50 μL of Hfr 3000 bacteria was added to each tube, 3 mL of top agar was added and the tube contents were vortexed. The contents of each tube was poured into its own LB plate and the plates were incubated overnight at 37° C. Plaques were counted by visual inspection the following morning.

[7] = Table 8, HIV starting titer approximately 5 logs
[8] = Table 9, HIV starting titer approximately 5.4 logs

| Compound | HIV Log Kill 64 μM [3, 7] [log] | HIV Log Kill 16 μM [3, 7] [log] | HIV Log Kill 32 μM [3, 7] [log] | HIV Log Kill 16 μM [3, 8] [log] | HIV Log Kill 32 μM [3, 8] [log] | HIV Log Kill 64 μM [3, 8] [log] | R17 inactivation compared with AMT [6] | further results |
| --- | --- | --- | --- | --- | --- | --- | --- | --- |
| Nc1c2ccccc2nc2ccccc12 [9-Aminoacridine, reference compound] | – | – | – | – | – | – | – | revertant colonies per plate, positive control [1]: 284 |
| Cc1oc2c(C)c3oc(=O)cc(C)c3cc2c1CNCCN [Compound 1, 4′-(4-amino-2-aza)butyl-4,5′,8-trimethylpsoralen dihydrochloride] | 2.1 | – | – | – | – | – | – | logs killed in the "dark" control ([2]; Table 3, runs 1-3, at most): ≤ 0.1 logs; R17 inactivation efficiency compared with 8-MOP ([2]; Table 4): much R17 inactivatiotn efficiency than does 8-MOP; R17 Log Kill 8 uM ([2]; Table 5, 8 uM, 1 minute irradiation, starting titer approx. 7.2 logs): 1.7 log; R17 Log Kill 16 uM ([2]; Table 5, 16 uM, 1 minute irradiation, starting titer approx. 7.2 logs): 2.8 log; R17 Log Kill 32 uM ([2]; Table 5, 32 uM, 1 minute irradiation, starting titer approx. 7.2 logs): 5.3 log; LOG TITER ([2]; experiment 1, 32 μM cmpd, 1′ uva, phage only 7.7): <1 log; LOG TITER ([2]; experiment 1, 32 μM cmpd, 10′ uva, phage only 7.7): <1 log; LOG TITER ([2]; experiment 1, compound only (32 μM), not irradiated, phage only 7.7): 7.6 log; LOG TITER ([2]; experiment 2, 3.2 μM cmpd, 1′ uva, phage only 7.8): 6.9 log; LOG TITER ([2]; experiment 2, 3.2 μM cmpd, 10′ uva, phage only 7.8): 6.1 log; LOG TITER ([2]; experiment 2, compound only (3.2 μM), not irradiated, phage only 7.8): 7.7 log; LOG TITER ([2]; experiment 3, 4 μM cmpd, 1′ uva, phage only 7.3): 6.3 log; LOG TITER ([2]; experiment 3, 8 μM cmpd, 1′ uva, phage only 7.3): 5.6 log; LOG TITER ([2]; experiment 3, 16 μM cmpd, 1′ uva, phage only 7.3): 3.9 log; LOG TITER ([2]; experiment 3, compound only (16 μM), not irradiated, phage only 7.3): 7.3 log; mutation in the TA100 strain ([4]; TA100, with and without S9): only in the absence of S9; dose at which the only mutagenic response (weak frameshift mutagen) was detected [5]: 5 μg/plate |
| Cc1oc2c(C)c3oc(=O)cc(C)c3cc2c1COCCN [Compound 2, 4′-(4-Amino-2-oxa)butyl-4,5′,8-trimiethylpsoralen Hydrochloride] | >4.5 | 1.4 | 3.8 | – | – | – | – | HIV inactivation activity compared with AMT ([3]; concentrations of 64 μM of compound or higher): significantly more active than AMT |
| Cc1oc2c(C)c3oc(=O)cc(C)c3cc2c1CNCCCN [Compound 5, 4′-(5-amino-2-aza)pentyl-4,5′,8-trimethylpsoralen dihydrochloride] | >2.6 | 0.9 | 1.3 | – | – | – | – | R17 log kill 16 uM ([2]; Table 6, 16 uM, 1 minute irradiation = 1.2 J/cm^2): 5.6 log; R17 log kill 32 uM ([2]; Table 6, 32 uM, 1 minute irradiation = 1.2 J/cm^2): >6.1 log; R17 log kill 64 uM ([2]; Table 6, 1 minute irradiation = 1.2 J/cm^2): >6.1 log |
| Cc1oc2c(C)c3oc(=O)cc(C)c3cc2c1COCCOCCN [Compound 7, 4′-(7-Amino-2,5-oxa)heptyl-4,5′,8-trimethylpsoralen Hydrochloride] | 3.5 | 0.8 | 2.1 | – | – | – | – | R17 log kill 16 uM ([2]; Table 7, 16 uM, 1 minute irradiation): >6 log; R17 log kill 32 uM ([2]; Table 7, 32 uM, 1 minute irradiation): >6 log; R17 log kill 64 uM ([2]; Table 7, 1 minute irradiation): >6 log |
| Cc1oc2c(C)c3oc(=O)cc(C)c3cc2c1COCCOCCNCCCCN.Cl.Cl [Compound 8, 4′-(12-Amino-8-aza-2,5-dioxa)dodecyl-4,5′,8-trimethylpsoralen Dihydrochloride] | 3.7 | 1.1 | 1.9 | – | – | – | – | – |
| Cc1oc2c(C)c3oc(=O)cc(C)c3cc2c1CNCCCOCCCCOCCN [Compound 9] | – | – | – | 0.8 | 1.4 | 2.7 | – | – |
| Cc1oc2c(C)c3oc(=O)cc(C)c3cc2c1CNCCCCCN.Cl.Cl [Compound 10, 4′-(7-amino-2-aza)heptyl-4,5′,8-trimethylpsoralen dihydrochloride] | – | – | – | 2.0 | >3.5 | >3.5 | more efficient at inactivating R17 than was AMT | – |
| Cc1oc2c(C)c3oc(=O)cc(C)c3cc2c1CNCCCNCCCN [Compound 12] | – | – | – | 0.4 | 0.8 | 1.3 | more efficient at inactivating R17 than was AMT | – |
| Cc1oc2c(C)c3oc(=O)cc(C)c3cc2c1CNCCCNCCCCNCCCN.Cl.Cl.Cl.Cl [Compound 15, 4′-(14-Amino-2,6,11-triaza)tetradecyl-4,5′,8-trimethylpsoralen Tetrahydrochloride] | – | – | – | – | – | – | more efficient at inactivating R17 than was AMT | – |
| Cc1cc(=O)oc2c(C)c3oc(CNCCCCN)c(C)c3cc12.Cl.Cl [Compound 17, 5′-(6-Amino-2-aza)hexyl-4,4′,8-trimethylpsoralen Dihydrochloride] | – | – | – | 1.2 | – | 3.4 | more efficient at inactivating R17 than was AMT | – |
| Cc1cc(=O)oc2c(C)c3oc(COCCN)c(C)c3cc12 [Compound 18] | – | – | – | 1.0 | 1.0 | 3.1 | – | – |
| [N-]=[N+]=[N-] [sodium azide, reference compound] | – | – | – | – | – | – | – | revertant colonies per plate, positive control ([4]; TA100 −S9, 1.5 μg/plate): 965 |
